Results published in patent publication US20050154537A1, “Methods, program products, and systems for single and multi-agent dosing and other related methods” (priority 2003, published 2005).

How the values were obtained:
Platelets = assay: Lookup table: marker validity (nadir) window, Platelets; format: in vivo; conditions: days elapsed between current dose and marker
Excerpt: (§1) A lookup table has been constructed (see above example), in the form of a table, to represent the relationship of each trial Agent and its qualified Clinical Markers. This table includes information regarding the Maximum Dose and the Inverse Marker Applicability for each Agent. The gray cells on the Cycle Dose Modifier indicate these values.
(§2) The table also includes information regarding the nadir of applicability for each Agent—Marker combination. The range, in days and indicated as the Lower Limit and Upper limit, has been determined by calculating a percentage (20%) above and below the true nadir value when only a single value is known. Otherwise, the upper and lower nadir values are used. […] The values of Upper and Lower limits is shown as a property of the Association between Markers and Agents. The Relevancy of a Marker can be computed using the lookup table by comparing the number of days elapsed between the date of the application of the current dose and the date on which the Marker was taken to the upper and lower values for that Agent Marker Association. If the elapsed days are greater than or equal to the lower limit and less than or equal to the upper limit, then the calculations provided by the Cycle Dose Modifier are said to be relevant and thereby applicable as indicated in the yellow Marker Validity cell. The Relevancy of Cycle Dose Modifier Calculations for Agent 1 is based on the Validity of Marker for Agent 1 calculated by: =IF(and((($B13−B6)>=VLOOKUP(B$3,Validity!$A$3:$K$8,10)),((B$13−B6)<=VLOOKUP(B$3,Validity!$A$3:$K$8,11))),“valid”,“invalid”)

Hemoglobin (Hgb) = assay: Lookup table: marker validity (nadir) window, Hemoglobin (Hgb); format: in vivo; conditions: days elapsed between current dose and marker
Excerpt: as §1, §2

Platelets LL (Platelets; lower limit of nadir range): 8 days
Platelets UL (Platelets; upper limit of nadir range): 11 days
Hemoglobin (Hgb) LL (Hemoglobin (Hgb); lower limit of nadir range): 8 days
Hemoglobin (Hgb) UL (Hemoglobin (Hgb); upper limit of nadir range): 11 days
Compound: CC(=O)O[C@H]1C(=O)[C@@]2(C)[C@H]([C@H](OC(=O)c3ccccc3)[C@]3(O)C[C@H](OC(=O)[C@H](O)[C@@H](NC(=O)c4ccccc4)c4ccccc4)C(C)=C1C3(C)C)[C@]1(OC(C)=O)CO[C@@H]1C[C@@H]2O [Taxol]
